In patent US11040028B2, “Penicinotam derivative, preparation method and use thereof” (OCEAN UNIVERSITY OF CHINA, priority 2017, dated 2021):

What was measured:
Type in all cases: cell-based
[1] = test system: NF-κB; experiment: Immunological activity test: inhibition of NF-κB activity; settings: initial concentration of 30 μM; a/b isomers given as first/second symbol; read-out: IC50 (μM), inhibitory activity against NF-κB
Procedure, shortened: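 Each compound is tested at 30 μM for its ability to suppress NF-κB signalling. Parthenolide runs alongside as the positive control, and the data are then analysed to give IC50 values.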

[2] = test system: mouse macrophages (RAW264.7); experiment: Lipopolysaccharide-induced NO secretion in macrophages (Griess); settings: Mus musculus, RAW264.7, 24 h, RAW264.7, LPS 1 μg/ml, a/b isomers given as first/second symbol, read-out: IC50 (μM), inhibition of lipopolysaccharide-induced NO secretion in macrophages
Procedure, shortened: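 Percent inhibition of NO release was measured by Griess absorbance at 548 nm in supernatants. Cells were mouse RAW264.7 macrophages in 10% FBS DMEM, treated with graded compound concentrations and activated by LPS (1 μg/ml) for 24 h.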

[3] = test system: human fibrosarcoma cells HT-1080; experiment: Anti-fibrosis activity test: inhibition of proliferation of human fibrosarcoma cells HT-1080 (CCK-8); settings: Homo sapiens, HT-1080, 48 h
Procedure, shortened: (§1)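 Proliferation read by CCK-8 (2 h, A450) after 48 h compound treatment of cells plated at 2×10^4 cells/mL and allowed 24 h attachment, triplicate per concentration. Inhibition rate derived from absorbance relative to untreated blank, with IC50 fitted; pirfenidone as positive control.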

[4] = test system: human lung fibroblasts HFL1; experiment: Anti-fibrosis activity test: inhibition of proliferation of human lung fibroblasts HFL1 (CCK-8); settings: Homo sapiens, HFL1, 48 h
Procedure, shortened: as §1

[5] = test system: BHK-21 cells; experiment: Anti-fibrosis activity test: inhibition of BHK-21 cell proliferation (CCK-8); settings: Mesocricetus auratus, BHK-21, 48 h
Procedure, shortened: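 Read-out: CCK-8 absorbance at 450 nm after 2 h, giving proliferation inhibition (1−Ai/Ao)×100% versus blank control, from which IC50 was derived. Cells had been treated with compounds for 48 h after 24 h adherence at 37° C. Pirfenidone served as positive control.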

[6] = test system: human hepatic stellate cells LX-2; experiment: Anti-fibrosis activity test: inhibition of proliferation of human hepatic stellate cells LX-2 (CCK-8); settings: Homo sapiens, 48 h
Procedure, shortened: as §1

[7] = test system: human embryonic lung fibroblast IMR-90; experiment: Anti-fibrosis activity test: inhibition of proliferation of human embryonic lung fibroblast IMR-90 (CCK-8)
Procedure, shortened: as §1

[8] = test system: cardiac fibroblast RAT-iCell-C002; experiment: Anti-fibrosis activity test: inhibition of proliferation of cardiac fibroblast RAT-iCell-C002 (CCK-8); settings: Cardiac fibroblast, 48 h
Procedure, shortened: as §1

[9] = test system: human dermal fibroblasts CCC-ESF-1; experiment: Anti-fibrosis activity test: inhibition of proliferation of human dermal fibroblasts CCC-ESF-1 (CCK-8); settings: Fibroblast
Procedure, shortened: as §1

[10] = human fibrosarcoma cells HT-1080, CCK-8, 48 hours
[11] = human lung fibroblasts HFL1, CCK-8, 48 hours
[12] = CCK-8, 48 hours after administration
[13] = human hepatic stellate cells LX-2, CCK-8, 48 hours
[14] = human embryonic lung fibroblast IMR-90, CCK-8, 48 hours
[15] = cardiac fibroblast RAT-iCell-C002, CCK-8, 48 hours
[16] = human dermal fibroblasts CCC-ESF-1, CCK-8, 48 hours
[17] = Homo sapiens, IMR-90 cells, 48 h, CCK-8
[18] = Homo sapiens, CCC-ESF-1 cells, 48 h, CCK-8

| Structure (SMILES) | IC50 [1] [µM] | IC50 [2] [µM] | IC50 [3, 10] [mM] | IC50 [4, 11] [mM] | IC50 [5, 12] [mM] | IC50 [6, 13] [mM] | IC50 [7, 14] [mM] | IC50 [8, 15] [mM] | IC50 [9, 16] [mM] | IC50 ([3]; HT-1080 cells, 48 h, CCK-8) [mM] | IC50 ([4]; HFL1 cells, 48 h, CCK-8) [mM] | IC50 ([5]; 48 h, CCK-8) [mM] | IC50 ([6]; LX-2, 48 h, LX-2 cells, CCK-8) [mM] | IC50 [7, 17] [mM] | IC50 ([8]; RAT-iCell-C002 cells, CCK-8) [mM] | IC50 [9, 18] [mM] |
| --- | --- | --- | --- | --- | --- | --- | --- | --- | --- | --- | --- | --- | --- | --- | --- | --- |
| O=C1c2c(n(Cc3cc(C(F)(F)F)cc(C(F)(F)F)c3)c3ccccc3c2=O)-c2cccn21 [Compound 607a, 4-(3,5-Bis(trifluoromethyl)benzyl)-9H-pyrrolizino[1,2-b]quinoline-9,10(4H)-dione] | 1 to 10 | 0.1 to 1 | 0.05 to 5 | 0.05 to 5 | 0.05 to 5 | 0.05 to 5 | 0.05 to 5 | 0.05 to 5 | 0.05 to 5 |  |  |  |  |  |  |  |
| CN(C)CCn1c2c(c(=O)c3ccccc31)C(=O)n1cccc1-2 [Compound 12a, 4-(2-(Dimethylamino)ethyl)-9H-pyrrolizino[1,2-b]quinoline-9,10(4H)-dione] | 1 to 10 | 1 to 10 | 0.05 to 5 | 0.05 to 5 | 0.05 to 5 | 0.05 to 5 | 0.05 to 5 | 0.05 to 5 | 0.05 to 5 |  |  |  |  |  |  |  |
| O=C1c2c(n(CC(F)(F)F)c3ccccc3c2=O)-c2cccn21 [Compound 657a, 4-(2,2,2-Trifluoroethyl)-9H-pyrrolizino[1,2-b]quinoline-9,10(4H)-dione] | 0.1 to 1 | 1 to 10 | 0.05 to 5 | 0.05 to 5 | 0.05 to 5 | 0.05 to 5 | 0.05 to 5 | 0.05 to 5 | 0.05 to 5 |  |  |  |  |  |  |  |
| CS(=O)(=O)CCCn1c2c(c(=O)c3ccccc31)C(=O)n1cccc1-2 [Compound 659a, 4-(3-(Methylsulfonyl)propyl)-9H-pyrrolizino[1,2-b]quinoline-9,10(4H)-dione] | 1 to 10 | 1 to 10 | 0.05 to 5 | 0.05 to 5 | 0.05 to 5 | 0.05 to 5 | 0.05 to 5 | 0.05 to 5 | 0.05 to 5 |  |  |  |  |  |  |  |
| O=C1c2c([nH]c3cc(N4CCNCC4)ccc3c2=O)-c2cccn21 [Compound 319a, 6-(piperazin-1-yl)-9H-pyrrolizino[1,2-b]quinoline-9,10(4H)-dione] | 1 to 10 | 1 to 10 | 0.05 to 5 | 0.05 to 5 | 0.05 to 5 | 0.05 to 5 | 0.05 to 5 | 0.05 to 5 | < 0.05 |  |  |  |  |  |  |  |
| COc1c2c(nc3cc(N4CCNCC4)ccc13)-c1cccn1C2=O [Compound 328b, 9-methoxy-6-(piperazin-1-yl)-10H-pyrrolizino[1,2-b]quinolin-10-one] | 1 to 10 | 1 to 10 | 0.05 to 5 | 0.05 to 5 | 0.05 to 5 | 0.05 to 5 | 0.05 to 5 | 0.05 to 5 | 0.05 to 5 |  |  |  |  |  |  |  |
| CN(C)CCCOc1c2c(nc3ccccc13)-c1cccn1C2=O [Compound 658b, 9-(3-(dimethylamino)propoxy)-10H-pyrrolizino[1,2-b]quinolin-10-one] | 1 to 10 | 1 to 10 | 0.05 to 5 | 0.05 to 5 | 0.05 to 5 | 0.05 to 5 | 0.05 to 5 | 0.05 to 5 | 0.05 to 5 |  |  |  |  |  |  |  |
| O=C1c2c(n(Cc3cccc([N+](=O)[O-])c3)c3ccccc3c2=O)-c2cccn21 [Compound 583a, 4-(3-Nitrobenzyl)-9H-pyrrolizino[1,2-b]quinoline-9,10(4H)-dione] | 1 to 10 | 1 to 10 | 0.05 to 5 | 0.05 to 5 | 0.05 to 5 | 0.05 to 5 | 0.05 to 5 | 0.05 to 5 | 0.05 to 5 |  |  |  |  |  |  |  |
| O=C1c2c(nc3c(C(F)(F)F)cccc3c2O)-c2cccn21 [Compound 448b, 9-hydroxy-5-(trifluoromethyl)-10H-pyrrolizino[1,2-b]quinolin-10-one] | 1 to 10 | 1 to 10 | < 0.05 | 0.05 to 5 | 0.05 to 5 | 0.05 to 5 | 0.05 to 5 | 0.05 to 5 | 0.05 to 5 |  |  |  |  |  |  |  |
| O=C1c2c(n(CCCCN3CCOCC3)c3ccccc3c2=O)-c2cccn21 [Compound 664a, 4-(4-Morpholinobutyl)-9H-pyrrolizino[1,2-b]quinoline-9,10(4H)-dione] | 1 to 10 | 0.1 to 1 | 0.05 to 5 | 0.05 to 5 | 0.05 to 5 | 0.05 to 5 | 0.05 to 5 | 0.05 to 5 | 0.05 to 5 |  |  |  |  |  |  |  |
| O=C1c2c(nc3cccc(F)c3c2OCc2ccc(F)cc2)-c2cccn21 [Compound 468b, 8-fluoro-9-((4-fluorobenzyl)oxy)-10H-pyrrolizino[1,2-b]quinolin-10-one] | 1 to 10 | 1 to 10 | 0.05 to 5 | 0.05 to 5 | 0.05 to 5 | 0.05 to 5 | 0.05 to 5 | 0.05 to 5 | 0.05 to 5 |  |  |  |  |  |  |  |
| Cc1ccc(C)c2c(O)c3c(nc12)-c1cccn1C3=O [Compound 772b, 9-hydroxy-5,8-dimethyl-10H-pyrrolizino[1,2-b]quinolin-10-one] | 0.1 to 1 | 1 to 10 |  |  |  |  |  |  |  | 0.05 to 5 | 0.05 to 5 | 0.05 to 5 | 0.05 to 5 | 0.05 to 5 | 0.05 to 5 | 0.05 to 5 |
| Cc1cc2n(c1)C(=O)c1nc3ccccc3c(O)c1-2 [Compound 798b, 11-hydroxy-2-methyl-5H-pyrrolizino[2,1-b]quinolin-5-one] | 1 to 10 | 1 to 10 |  |  |  |  |  |  |  | 0.05 to 5 | 0.05 to 5 | 0.05 to 5 | 0.05 to 5 | 0.05 to 5 | 0.05 to 5 | 0.05 to 5 |
| COc1cccc(COc2c3c(nc4ccccc24)-c2cccn2C3=O)c1 [Compound 610b, 9-((3-methoxybenzyl)oxy)-10H-pyrrolizino[1,2-b]quinolin-10-one] | 1 to 10 | 1 to 10 | 0.05 to 5 | 0.05 to 5 | 0.05 to 5 | 0.05 to 5 | 0.05 to 5 | 0.05 to 5 | 0.05 to 5 |  |  |  |  |  |  |  |
| O=C(O)Cn1c2c(c(=O)c3cc(C(F)(F)F)ccc31)C(=O)n1cccc1-2 [Compound 279a, 2-(9,10-dioxo-7-(trifluoromethyl)-9H-pyrrolizino[1,2-b]quinolin-4(10H)-yl)acetic acid] | 1 to 10 | 1 to 10 | 0.05 to 5 | 0.05 to 5 | 0.05 to 5 | 0.05 to 5 | 0.05 to 5 | 0.05 to 5 | 0.05 to 5 |  |  |  |  |  |  |  |
| O=C1c2c(nc3ccccc3c2OCCCCN2CCNCC2)-c2cccn21 [Compound 670b, 9-(4-(piperazin-1-yl)butoxy)-10H-pyrrolizino[1,2-b]quinolin-10-one] | 1 to 10 | 1 to 10 |  |  |  |  |  |  |  | 0.05 to 5 | 0.05 to 5 | 0.05 to 5 | 0.05 to 5 | 0.05 to 5 | 0.05 to 5 | 0.05 to 5 |
| O=C1c2c(n(Cc3ccc(OC(F)(F)F)cc3)c3ccccc3c2=O)-c2cccn21 [Compound 592a, 4-(4-(Trifluoromethoxy)benzyl)-9H-pyrrolizino[1,2-b]quinoline-9,10(4H)-dione] | 1 to 10 | 1 to 10 | 0.05 to 5 | 0.05 to 5 | 0.05 to 5 | 0.05 to 5 | 0.05 to 5 | 0.05 to 5 | 0.05 to 5 |  |  |  |  |  |  |  |
| O=C1c2c(nc3ccccc3c2OCc2ccc(OC(F)(F)F)cc2)-c2cccn21 [Compound 592b, 9-((4-(trifluoromethoxy)benzyl)oxy)-10H-pyrrolizino[1,2-b]quinolin-10-one] | 1 to 10 | 1 to 10 | 0.05 to 5 | 0.05 to 5 | 0.05 to 5 | 0.05 to 5 | 0.05 to 5 | 0.05 to 5 | 0.05 to 5 |  |  |  |  |  |  |  |
| O=C1c2c(nc3ccccc3c2OC2CC2)-c2cccn21 [Compound 673b, 9-cyclopropoxy-10H-pyrrolizino[1,2-b]quinolin-10-one] | 1 to 10 | 1 to 10 |  |  |  |  |  |  |  | 0.05 to 5 | 0.05 to 5 | 0.05 to 5 | 0.05 to 5 | 0.05 to 5 | 0.05 to 5 | 0.05 to 5 |
